Experimental data: patent publication US10266497B2 (ABIDE THERAPEUTICS, INC., priority 2017, dated 2019)

Experiments:
FAAH [1] = target: T1, FAAH (Homo sapiens, UniProt O00519); test: In vitro competitive activity-based protein profiling, FAAH, human; conditions: for inhibition at 1 µM: read-out: FAAH % inh. 1 μM (human)
T1 sequence (O00519 1-579): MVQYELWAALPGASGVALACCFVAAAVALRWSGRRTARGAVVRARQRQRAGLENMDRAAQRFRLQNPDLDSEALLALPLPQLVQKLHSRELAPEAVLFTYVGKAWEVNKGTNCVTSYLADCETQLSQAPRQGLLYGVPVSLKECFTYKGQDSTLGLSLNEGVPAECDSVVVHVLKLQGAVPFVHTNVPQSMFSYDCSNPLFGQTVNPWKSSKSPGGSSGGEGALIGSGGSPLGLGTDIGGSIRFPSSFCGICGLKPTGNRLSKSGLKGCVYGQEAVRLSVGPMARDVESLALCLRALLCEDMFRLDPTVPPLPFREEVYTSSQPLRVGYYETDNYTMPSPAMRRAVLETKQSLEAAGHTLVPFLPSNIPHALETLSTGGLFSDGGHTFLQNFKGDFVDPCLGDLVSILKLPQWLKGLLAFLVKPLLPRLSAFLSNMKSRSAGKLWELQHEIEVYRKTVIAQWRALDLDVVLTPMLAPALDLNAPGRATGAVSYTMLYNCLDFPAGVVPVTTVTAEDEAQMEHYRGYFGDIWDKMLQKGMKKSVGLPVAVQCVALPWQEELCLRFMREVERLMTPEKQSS
Experimental: (§1) Biological Evaluation In Vitro Competitive Activity-Based Protein Profiling.
(§2) Proteomes (mouse brain membrane fraction for mouse assays; human prefrontal cortex membrane fractions for human assays) (50 mL, 1.0 mg/mL total protein concentration) were preincubated with varying concentrations of inhibitors at 37° C. After 30 min, FP-Rh (1.0 mL, 50 mM in DMSO) was added and the mixture was incubated for another 30 min at 37° C. Reactions were quenched with SDS loading buffer (15 μL—4λ) and run on SDS-PAGE.

FAAH [2] = target: T2, FAAH (Mus musculus, UniProt O08914); test: In vitro competitive activity-based protein profiling, FAAH, mouse; conditions: read-out: FAAH % inh. 1 μM (mouse)
T2 sequence (O08914 1-579): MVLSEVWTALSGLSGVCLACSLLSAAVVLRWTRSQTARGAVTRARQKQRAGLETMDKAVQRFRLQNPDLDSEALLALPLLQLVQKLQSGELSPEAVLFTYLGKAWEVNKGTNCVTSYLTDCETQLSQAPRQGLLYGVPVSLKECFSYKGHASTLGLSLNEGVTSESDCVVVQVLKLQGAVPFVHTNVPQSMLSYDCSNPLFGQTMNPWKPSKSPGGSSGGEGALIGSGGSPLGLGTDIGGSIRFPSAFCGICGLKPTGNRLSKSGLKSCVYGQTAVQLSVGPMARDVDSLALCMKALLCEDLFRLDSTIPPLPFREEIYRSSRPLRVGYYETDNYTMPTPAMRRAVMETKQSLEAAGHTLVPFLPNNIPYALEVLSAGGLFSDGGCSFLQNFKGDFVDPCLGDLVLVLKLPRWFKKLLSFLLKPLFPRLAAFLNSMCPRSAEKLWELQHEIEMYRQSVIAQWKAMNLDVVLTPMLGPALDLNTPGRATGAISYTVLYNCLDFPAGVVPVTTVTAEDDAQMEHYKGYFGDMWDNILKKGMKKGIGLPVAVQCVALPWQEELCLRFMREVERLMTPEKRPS
Experimental: as §1, §2

MAGL [3] = target: T3, MAGL (Mus musculus, UniProt O35678); test: Mouse brain proteomes from inhibitor treated mice (oral gavage, sacrificed 4 h after administration); type: in vivo; parameters: mouse brain membrane fraction for mouse assays; from tissue; host or cells: mouse brain (membrane fraction in vitro; brain proteomes of treated C57Bl/6J mice in vivo); conditions: 5 mg/kg oral gavage, brain proteome 4 h after administration, read-out: MAGL % inh. 5 mg/kg (mouse)
T3 sequence (O35678 1-303): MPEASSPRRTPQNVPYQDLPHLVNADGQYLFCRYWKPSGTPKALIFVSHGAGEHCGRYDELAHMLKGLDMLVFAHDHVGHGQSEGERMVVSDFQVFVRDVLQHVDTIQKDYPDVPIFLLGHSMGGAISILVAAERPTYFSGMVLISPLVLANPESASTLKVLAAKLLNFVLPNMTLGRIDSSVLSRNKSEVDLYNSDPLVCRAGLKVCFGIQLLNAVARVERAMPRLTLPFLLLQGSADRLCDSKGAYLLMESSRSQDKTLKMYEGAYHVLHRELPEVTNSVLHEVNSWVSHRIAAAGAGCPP

MAGL [4] = target: T3, MAGL; test: In vitro competitive activity-based protein profiling, MAGL, mouse; conditions: read-out: MAGL % inh. 1 μM (mouse)
FAAH [5] = target: T2, FAAH; test: Mouse brain proteomes from inhibitor treated mice (oral gavage, sacrificed 4 h after administration), FAAH; type: in vivo; parameters: mouse brain membrane fraction for mouse assays; from tissue; host or cells: mouse brain (membrane fraction in vitro; brain proteomes of treated C57Bl/6J mice in vivo); conditions: 5 mg/kg oral gavage, brain proteome 4 h after administration, read-out: FAAH % inh. 5 mg/kg (mouse)
MAGL [6] = target: T4, MAGL (Homo sapiens, UniProt Q99685); test: In vitro competitive activity-based protein profiling, MAGL, human; conditions: read-out: MAGL % inh. 1 μM (human)
T4 sequence (Q99685 1-303): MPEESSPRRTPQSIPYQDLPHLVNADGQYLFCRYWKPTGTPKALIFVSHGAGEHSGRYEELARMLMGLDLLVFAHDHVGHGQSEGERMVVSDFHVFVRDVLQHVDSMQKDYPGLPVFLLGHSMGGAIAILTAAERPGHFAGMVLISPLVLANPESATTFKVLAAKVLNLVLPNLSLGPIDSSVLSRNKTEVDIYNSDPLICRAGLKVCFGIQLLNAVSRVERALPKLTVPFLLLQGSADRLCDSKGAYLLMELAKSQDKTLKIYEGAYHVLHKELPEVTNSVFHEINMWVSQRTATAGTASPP
Experimental: as §1, §2

IC50 (FAAH [1]) [nM]	inhibition at 1 µM (FAAH [1]) [%]	inhibition at 1 µM (FAAH [2]) [%]	inhibition at 5 mg/kg (MAGL [3]) [%]	inhibition at 1 µM (MAGL [4]) [%]	inhibition at 5 mg/kg (FAAH [5]) [%]	inhibition at 1 µM (MAGL [6]) [%]	Compound
1000 to 10000	50 to 75	> 75	0 to 25	> 75	0 to 25	> 75	O=C(O)c1ccn(C(=O)N2CCC3(CCN(Cc4cc(Cl)ccc4C(F)(F)F)C3)CC2)n1 [Example 43, 1-(2-(5-chloro-2-(trifluoromethyl)benzyl)-2,8-diazaspiro[4.5]decane-8-carbonyl)-1H-pyrazole-3-carboxylic acid]
–	0 to 25	0 to 25	0 to 25	> 75	0 to 25	> 75	O=C(O)c1ccn(C(=O)N2CCN(Cc3ccc(Cl)cc3N3CC4COCC4C3)CC2)n1 (centres unmarked) [Example 111, 1-(4-(4-chloro-2-(tetrahydro-1H-furo[3,4-c]pyrrol-5(3H)-yl)benzyl)piperazine-1-carbonyl)-1H-pyrazole-3-carboxylic acid]
–	0 to 25	0 to 25	0 to 25	> 75	0 to 25	> 75	CC(C)(O)C1CCN(c2cc(C(F)(F)F)ccc2CN2CCN(C(=O)n3ccc(C(=O)O)n3)CC2)CC1 [Example 109, 1-(4-(2-(4-(2-hydroxypropan-2-yl)piperidin-1-yl)-4-(trifluoromethyl)benzyl)piperazine-1-carbonyl)-1H-pyrazole-3-carboxylic acid]
–	0 to 25	0 to 25	0 to 25	> 75	0 to 25	> 75	O=C(O)c1ccn(C(=O)N2CCN(Cc3ccc(C(F)(F)F)cc3N3CCN(C4CC4)CC3)CC2)n1 [Example 6, 1-(4-(2-(4-Cyclopropylpiperazin-1-yl)-4-(trifluoromethyl)benzyl)piperazine-1-carbonyl)-1H-pyrazole-3-carboxylic Acid]
100 to 1000	> 75	> 75	0 to 25	> 75	0 to 25	> 75	Cc1c(CO[C@H]2C[C@@H]3CN(C(=O)n4ccc(C(=O)O)n4)C[C@@H]3C2)cccc1C(F)(F)F [Example 159, 1-(trans-5-((2-methyl-3-(trifluoromethyl)benzyl)oxy)octa-hydrocyclopenta[c]pyrrole-2-carbonyl)-1H-pyrazole-3-carboxylic acid]
100 to 1000	50 to 75	50 to 75	0 to 25	> 75	0 to 25	> 75	O=C(O)c1nn(C(=O)N2CC3CN(Cc4ccc(N5CCCC5)cc4C(F)(F)F)CC3C2)cc1Cl (centres unmarked) [Example 140, 4-chloro-1-(5-(4-(pyrrolidin-1-yl)-2-(trifluoromethyl)benzyl)octahydro-pyrrolo[3,4-c]pyrrole-2-carbonyl)-1H-pyrazole-3-carboxylic acid]
1000 to 10000	–	0 to 25	0 to 25	> 75	0 to 25	–	O=C(O)c1ccn(C(=O)N2CCN(Cc3ccc(C(F)(F)F)cc3N3CCOCC3)CC2)n1 [Example 3, 1-(4-(2-Morpholino-4-(trifluoromethyl)benzyl)piperazine-1-carbonyl)-1H-pyrazole-3-carboxylic Acid]

Compound	IC50 (FAAH [1]) [nM]	inhibition at 1 µM (FAAH [1]) [%]	inhibition at 1 µM (FAAH [2]) [%]	inhibition at 5 mg/kg (MAGL [3]) [%]	inhibition at 1 µM (MAGL [4]) [%]	inhibition at 5 mg/kg (FAAH [5]) [%]	inhibition at 1 µM (MAGL [6]) [%]
O=C(O)c1ccn(C(=O)N2CCN(Cc3ccc(Cl)cc3N3C4CCC3COC4)CC2)n1 [Example 105, 1-(4-(2-(3-oxa-8-azabicyclo[3.2.1]octan-8-yl)-4-chlorobenzyl)piper-azine-1-carbonyl)-1H-pyrazole-3-carboxylic acid]	–	0 to 25	0 to 25	0 to 25	> 75	0 to 25	> 75
